The subject of the test is seizures elicited by 6 Hz stimulation in rats. Kind of test: 6 Hz transcorneal electrical stimulation seizure model in rats. In kind it is in vivo, rat. On the procedure:
Anticonvulsant effect of compounds was evaluated in two models of epileptic seizures in immature rats (PTZ model and 6 Hz model). PTZ convulsions were tested in 12- and 25-day-old rats, 6 Hz-induced seizures in 15- and 25-day-old rats. Young adult rats (P60) were also used in either test. Day of birth was taken as P0. Experiments evaluating precognitive effect were performed in adult male rats of the Wistar and Long Evans strain (3 months old, b.w. 300-400 g). All animals were obtained from a breeding facility of Institute of Physiology CAS (certificate No. 1396/2014-MZE-17214) Animals were held in standard conditions (21±1° C., humidity 50-60%, light regime 12/12) with unrestricted access to food and water. All manipulations with animals were performed according to the https://nc3rs.org.uk/arrive-guidelines and to Czech Animal Protection Law 246/1992 Sb. And international directives (EU Directive 2010/63/EU for animals' experiments).
Two age groups of immature male Wistar rats were used in either experiment. In PTZ model P12 corresponding by a maturation of the brain to early postnatal human babies, i.e. to the period where children epileptic encephalopathy mostly resistant to present pharmacotherapy start to appear. The other group—P25 animals corresponds with school-age children. Generalized tonic-clonic seizures were elicited by a subcutaneous injection of PTZ in a dose of 100 mg/kg. The 6 Hz model was tested in P15 (at this age eyes are open and it is not necessary to surgically distract lids). Biphasic pulses with […] were applied transcorneally for 3 s by a constant current stimulator of Ugo Basile company. PTZ induced generalized seizures represent a model of human generalized tonic-clonic seizures, seizures elicited by 6 Hz stimulation are generally taken as a model of temporal (psychomotor, complex partial) seizures. Differences in latencies and seizure severity were evaluated by ANOVA with a subsequent pairwise comparison by Holm-Sidak test. Incidence of seizures were evaluated by Fischer exact test. Critical p value was set at p=0.05.
Younger group was formed by 15-day-old animals—the animals at this age have open eyes and it is not necessary to distract eyelids surgically. The other group was 25 days old. Sensitivity of these two age groups is different, therefore we used current intensities of 40, 60, and 80 mA in 15-day-old rats and 20, 40, and 60 mA in the 25-day-old animals. Stimulations were made in 20-min intervals, 10 min before each stimulation a drop of mesocaine into either eye was used as a local anesthetic. Steroid derivatives in a dose of 10 mg/kg i.p. were administered 20 min before the first stimulation. Seizures elicited by 60-mA intensity of stimulation current were suppressed, those elicited by 80 mA not.

On to `CC(=O)[C@H]1CC[C@H]2[C@@H]3CC[C@@H]4C[C@H](OC(=O)C5CCC(=O)N5)CC[C@]4(C)[C@H]3CC[C@]12C` (stereo partly drawn) [Example 1, (3R,5R,8R,9S,10S,13S,14S,17S)-17-Acetyl-10,13-dimethylhexadecahydro-1H-cyclopenta[a]fenantren-3-yl 5-oxopyrrolidine-2-carboxylate], for which the seizure severity entry (P15 rats, 10 mg/kg i.p.) is given as “not affected”. Also, the duration of seizures result (P15 rats, 60 and 80 mA, 10 mg/kg i.p.) is listed as “significantly shortened at both current intensities”. For the same compound, the incidence of seizures result (P15 rats, 60 mA, 10 mg/kg i.p.) is listed as “suppressed”. Further, where the note is “P15 rats, 80 mA, 10 mg/kg i.p.”, the “incidence of seizures (suppressed or not)” value is “not”. Moreover, for the setting “P25 rats, 10 mg/kg i.p.”, the duration of seizures result is “significantly shorter”, the incidence of seizures result is on record as “tendency to a decreased incidence of seizures” and the “seizure intensity (severity)” value was “lower intensity”. Besides, the “changes of the threshold intensity” value (adult (P60) rats, 1, 5, 10 mg/kg i.p., tendency after 10 mg/kg) is reported as “did not reach the level of significance”.
